From patent US11274100B2, “EP300/CREBBP inhibitor” (Daiichi Sankyo Company, Limited, priority 2017, dated 2022)

Legend:
EP300 = EP300 (Homo sapiens, UniProt Q09472); assay: Histone acetyltransferase inhibitory activity against EP300 (Test Example 1); type: biochemical; settings: 50 ng/mL EP300, 2 μM Acetyl-CoA, 100 nM Histone H4(1-25)-GSGSK (Biotin), 28° C. for 1 hour
Method in brief: (§1)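 Enzyme (50 ng/mL EP300 or 125 ng/mL CREBBP) incubated 1 h at 28° C with 2 μM acetyl-CoA, 100 nM biotinylated histone H4(1-25) peptide and 10 to 0.0006 μM compound in pH 8.0 Tris buffer with 330 nM trichostatin A, 1% DMSO. Reaction stopped with Lys-CoA; acetylation read by TR-FRET (Eu-anti pan-Ac/Sta-ULight) after overnight room-temperature incubation.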

CREBBP = CREBBP (Homo sapiens, UniProt Q92793); assay: Histone acetyltransferase inhibitory activity against CREBBP (Test Example 1); type: biochemical; settings: 125 ng/mL CREBBP, 2 μM Acetyl-CoA, 100 nM Histone H4(1-25)-GSGSK (Biotin), 28° C. for 1 hour
Method in brief: as §1

LK2 cells = assay: Antitumor activity in LK2 cell subcutaneous transplant model (Test Example 4); type: in vivo, female BALB/c-nu/nu mice; settings: dose 12.5 mg/kg/day, test end day
Description: [Test Example 4] Evaluation of Antitumor Activity in LK2 Cell Subcutaneous Transplant Model
LK2 cells were transplanted at a rate of 2×10^6 cells/head subcutaneously into a right abdominal site of each of female BALB/c-nu/nu mice, and 7 days after, the mice were grouped into groups each consisting of 5 mice based on an estimated tumor volume (longer diameter×shorter diameter×shorter diameter/2) and the weight. The LK2 cells were purchased from Human Science Research Resources Bank. […] The estimated tumor volume of each individual was measured from the day of grouping until 18 days after the transplantation (test end day).
(§2) The antitumor activity in LK2 cell subcutaneous transplant model of Test Example 4, the antitumor activity in TE-8 cell subcutaneous transplant model of Test Example 5, the antitumor activity in KARPASS-422 cell subcutaneous transplant model of Test Example 6, the antitumor activity in NMC10-15 cell subcutaneous transplant model of Test Example 7, and the antitumor activity in VCaP cell subcutaneous transplant model of Test Example 8 were respectively calculated on the end dates of the tests in accordance with the following equation: Tumor Growth Inhibition Rate %=(1−TVCt/TVCc)×100 TVC=(individual tumor volume on test end day)−(individual tumor volume on grouping day)
TVCt: average of TVC values of administration group […]

TE-8 cells = assay: Antitumor activity in TE-8 cell subcutaneous transplant model (Test Example 5); type: in vivo, female BALB/c-nu/nu mice; settings: TE-8 subcutaneous transplant model, dose 6 mg/kg/day, test end day
Description: [Test Example 5] Evaluation of Antitumor Activity in TE-8 Cell Subcutaneous Transplant Model
TE-8 cells were transplanted at a rate of 1×10^7 cells/head subcutaneously into a right abdominal site of each of female BALB/c-nu/nu mice, and 9 days after (Example 73) or 10 days after (Examples 35 and 84), the mice were grouped into groups each consisting of 5 mice based on an estimated tumor volume (longer diameter×shorter diameter×shorter diameter/2) and the weight. The TE-8 cells were purchased from Riken Cell Bank. The female BALB/c-nu/nu mice were purchased from Charles River Laboratories Japan, Inc.
(§3) From the day of grouping, the compound of Example 73 at a dose set to 2 mg/kg/day was orally administered in accordance with a schedule of twice a day continuously for 9 days (BID x 9). The estimated tumor volume of each individual was measured from the day of grouping until 18 days after the transplantation (test end day).
as §3, with “Besides, from” for “From”, “[…]” for “73”, “11” for “9”, “11).” for “9).”, “21” for “18”
as §2
TVCt: average of TVC values of administration group
TVCc: average of TVC values of non-administration group

KARPAS-422 cells = assay: Antitumor activity in KARPAS-422 cell subcutaneous transplant model (Test Example 6); type: in vivo, female SCID mice; settings: KARPAS422 subcutaneous transplant model, dose 6 mg/kg/day, test end day
Description: [Test Example 6] Evaluation of Antitumor Activity in KARPAS-422 Cell Subcutaneous Transplant Model
KARPAS-422 cells of human diffuse large B-cell lymphoma were transplanted at a rate of 2×10^7 cells/head subcutaneously into a right abdominal site of each of female SCID mice, and 10 days after, the mice were grouped into groups each consisting of 5 mice based on an estimated tumor volume (longer diameter×shorter diameter×shorter diameter/2) and the weight. The KARPAS-422 cells were purchased from Deutsche Sammlung von Mikroorganismen und Zelkulturen GmbH. […] The estimated tumor volume of each individual was measured from the day of grouping until 28 days after the transplantation (test end day).
as §2, with “grouping day) […]” for “grouping day)”

Sequence of EP300 (Q09472 whole entry): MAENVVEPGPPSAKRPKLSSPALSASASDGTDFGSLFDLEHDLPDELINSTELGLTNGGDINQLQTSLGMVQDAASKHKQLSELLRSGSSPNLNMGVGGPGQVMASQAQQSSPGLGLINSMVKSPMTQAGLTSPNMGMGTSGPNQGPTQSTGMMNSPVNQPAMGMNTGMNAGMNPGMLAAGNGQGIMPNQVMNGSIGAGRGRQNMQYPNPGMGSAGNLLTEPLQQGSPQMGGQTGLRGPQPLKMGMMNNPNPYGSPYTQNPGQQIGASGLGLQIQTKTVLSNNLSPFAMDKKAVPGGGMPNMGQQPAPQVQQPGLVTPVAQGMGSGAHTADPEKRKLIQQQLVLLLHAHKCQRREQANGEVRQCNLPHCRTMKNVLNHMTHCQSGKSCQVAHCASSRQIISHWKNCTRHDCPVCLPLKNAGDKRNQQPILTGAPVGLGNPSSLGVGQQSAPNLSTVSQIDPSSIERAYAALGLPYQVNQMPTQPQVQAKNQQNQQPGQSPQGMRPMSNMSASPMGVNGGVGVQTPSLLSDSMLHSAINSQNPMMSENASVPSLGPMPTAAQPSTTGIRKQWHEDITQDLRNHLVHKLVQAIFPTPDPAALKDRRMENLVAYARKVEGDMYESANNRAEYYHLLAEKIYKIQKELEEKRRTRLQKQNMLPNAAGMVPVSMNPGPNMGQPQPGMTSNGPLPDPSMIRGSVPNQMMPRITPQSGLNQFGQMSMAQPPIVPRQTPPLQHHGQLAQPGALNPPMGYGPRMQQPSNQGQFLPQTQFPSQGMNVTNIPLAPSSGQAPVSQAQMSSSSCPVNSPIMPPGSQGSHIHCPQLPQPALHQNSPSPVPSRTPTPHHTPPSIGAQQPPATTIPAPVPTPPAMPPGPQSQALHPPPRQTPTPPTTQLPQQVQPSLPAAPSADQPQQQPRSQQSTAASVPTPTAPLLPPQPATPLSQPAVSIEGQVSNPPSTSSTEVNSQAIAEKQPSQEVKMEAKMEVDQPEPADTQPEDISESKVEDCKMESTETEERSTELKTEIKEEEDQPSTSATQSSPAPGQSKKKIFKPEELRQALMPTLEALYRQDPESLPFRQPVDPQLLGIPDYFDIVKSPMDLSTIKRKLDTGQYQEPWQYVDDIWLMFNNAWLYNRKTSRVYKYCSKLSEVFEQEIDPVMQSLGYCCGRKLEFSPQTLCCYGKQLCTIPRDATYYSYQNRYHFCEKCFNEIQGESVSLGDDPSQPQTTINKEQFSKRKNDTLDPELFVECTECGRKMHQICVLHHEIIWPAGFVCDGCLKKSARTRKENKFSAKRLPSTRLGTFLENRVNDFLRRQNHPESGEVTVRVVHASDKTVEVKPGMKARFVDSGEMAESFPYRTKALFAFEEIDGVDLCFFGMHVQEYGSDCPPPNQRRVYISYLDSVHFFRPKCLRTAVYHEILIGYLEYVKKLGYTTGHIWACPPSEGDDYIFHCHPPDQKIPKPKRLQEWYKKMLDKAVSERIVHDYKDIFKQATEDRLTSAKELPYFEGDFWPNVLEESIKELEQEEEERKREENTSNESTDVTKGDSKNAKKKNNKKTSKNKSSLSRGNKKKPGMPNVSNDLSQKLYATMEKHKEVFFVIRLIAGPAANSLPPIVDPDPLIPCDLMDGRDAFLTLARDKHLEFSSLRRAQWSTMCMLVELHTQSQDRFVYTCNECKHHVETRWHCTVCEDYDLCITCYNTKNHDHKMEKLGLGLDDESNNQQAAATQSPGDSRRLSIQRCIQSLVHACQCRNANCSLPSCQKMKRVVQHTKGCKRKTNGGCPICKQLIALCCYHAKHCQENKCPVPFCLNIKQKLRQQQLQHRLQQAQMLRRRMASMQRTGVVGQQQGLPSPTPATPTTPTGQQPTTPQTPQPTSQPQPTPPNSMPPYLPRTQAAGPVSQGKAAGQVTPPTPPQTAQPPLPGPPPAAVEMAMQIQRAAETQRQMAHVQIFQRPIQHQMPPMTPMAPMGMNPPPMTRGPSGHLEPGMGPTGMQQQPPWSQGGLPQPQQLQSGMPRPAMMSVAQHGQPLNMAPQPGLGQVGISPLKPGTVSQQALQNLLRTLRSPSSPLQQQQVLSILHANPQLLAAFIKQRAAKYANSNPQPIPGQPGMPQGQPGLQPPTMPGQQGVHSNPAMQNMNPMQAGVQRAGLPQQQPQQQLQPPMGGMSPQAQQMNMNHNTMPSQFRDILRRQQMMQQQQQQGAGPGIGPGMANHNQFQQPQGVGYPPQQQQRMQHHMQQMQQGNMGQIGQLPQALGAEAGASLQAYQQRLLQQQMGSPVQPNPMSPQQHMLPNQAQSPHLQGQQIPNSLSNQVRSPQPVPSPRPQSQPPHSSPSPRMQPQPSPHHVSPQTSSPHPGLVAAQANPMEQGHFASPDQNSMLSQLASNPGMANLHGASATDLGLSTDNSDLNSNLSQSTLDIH
Sequence of CREBBP (Q92793 whole entry): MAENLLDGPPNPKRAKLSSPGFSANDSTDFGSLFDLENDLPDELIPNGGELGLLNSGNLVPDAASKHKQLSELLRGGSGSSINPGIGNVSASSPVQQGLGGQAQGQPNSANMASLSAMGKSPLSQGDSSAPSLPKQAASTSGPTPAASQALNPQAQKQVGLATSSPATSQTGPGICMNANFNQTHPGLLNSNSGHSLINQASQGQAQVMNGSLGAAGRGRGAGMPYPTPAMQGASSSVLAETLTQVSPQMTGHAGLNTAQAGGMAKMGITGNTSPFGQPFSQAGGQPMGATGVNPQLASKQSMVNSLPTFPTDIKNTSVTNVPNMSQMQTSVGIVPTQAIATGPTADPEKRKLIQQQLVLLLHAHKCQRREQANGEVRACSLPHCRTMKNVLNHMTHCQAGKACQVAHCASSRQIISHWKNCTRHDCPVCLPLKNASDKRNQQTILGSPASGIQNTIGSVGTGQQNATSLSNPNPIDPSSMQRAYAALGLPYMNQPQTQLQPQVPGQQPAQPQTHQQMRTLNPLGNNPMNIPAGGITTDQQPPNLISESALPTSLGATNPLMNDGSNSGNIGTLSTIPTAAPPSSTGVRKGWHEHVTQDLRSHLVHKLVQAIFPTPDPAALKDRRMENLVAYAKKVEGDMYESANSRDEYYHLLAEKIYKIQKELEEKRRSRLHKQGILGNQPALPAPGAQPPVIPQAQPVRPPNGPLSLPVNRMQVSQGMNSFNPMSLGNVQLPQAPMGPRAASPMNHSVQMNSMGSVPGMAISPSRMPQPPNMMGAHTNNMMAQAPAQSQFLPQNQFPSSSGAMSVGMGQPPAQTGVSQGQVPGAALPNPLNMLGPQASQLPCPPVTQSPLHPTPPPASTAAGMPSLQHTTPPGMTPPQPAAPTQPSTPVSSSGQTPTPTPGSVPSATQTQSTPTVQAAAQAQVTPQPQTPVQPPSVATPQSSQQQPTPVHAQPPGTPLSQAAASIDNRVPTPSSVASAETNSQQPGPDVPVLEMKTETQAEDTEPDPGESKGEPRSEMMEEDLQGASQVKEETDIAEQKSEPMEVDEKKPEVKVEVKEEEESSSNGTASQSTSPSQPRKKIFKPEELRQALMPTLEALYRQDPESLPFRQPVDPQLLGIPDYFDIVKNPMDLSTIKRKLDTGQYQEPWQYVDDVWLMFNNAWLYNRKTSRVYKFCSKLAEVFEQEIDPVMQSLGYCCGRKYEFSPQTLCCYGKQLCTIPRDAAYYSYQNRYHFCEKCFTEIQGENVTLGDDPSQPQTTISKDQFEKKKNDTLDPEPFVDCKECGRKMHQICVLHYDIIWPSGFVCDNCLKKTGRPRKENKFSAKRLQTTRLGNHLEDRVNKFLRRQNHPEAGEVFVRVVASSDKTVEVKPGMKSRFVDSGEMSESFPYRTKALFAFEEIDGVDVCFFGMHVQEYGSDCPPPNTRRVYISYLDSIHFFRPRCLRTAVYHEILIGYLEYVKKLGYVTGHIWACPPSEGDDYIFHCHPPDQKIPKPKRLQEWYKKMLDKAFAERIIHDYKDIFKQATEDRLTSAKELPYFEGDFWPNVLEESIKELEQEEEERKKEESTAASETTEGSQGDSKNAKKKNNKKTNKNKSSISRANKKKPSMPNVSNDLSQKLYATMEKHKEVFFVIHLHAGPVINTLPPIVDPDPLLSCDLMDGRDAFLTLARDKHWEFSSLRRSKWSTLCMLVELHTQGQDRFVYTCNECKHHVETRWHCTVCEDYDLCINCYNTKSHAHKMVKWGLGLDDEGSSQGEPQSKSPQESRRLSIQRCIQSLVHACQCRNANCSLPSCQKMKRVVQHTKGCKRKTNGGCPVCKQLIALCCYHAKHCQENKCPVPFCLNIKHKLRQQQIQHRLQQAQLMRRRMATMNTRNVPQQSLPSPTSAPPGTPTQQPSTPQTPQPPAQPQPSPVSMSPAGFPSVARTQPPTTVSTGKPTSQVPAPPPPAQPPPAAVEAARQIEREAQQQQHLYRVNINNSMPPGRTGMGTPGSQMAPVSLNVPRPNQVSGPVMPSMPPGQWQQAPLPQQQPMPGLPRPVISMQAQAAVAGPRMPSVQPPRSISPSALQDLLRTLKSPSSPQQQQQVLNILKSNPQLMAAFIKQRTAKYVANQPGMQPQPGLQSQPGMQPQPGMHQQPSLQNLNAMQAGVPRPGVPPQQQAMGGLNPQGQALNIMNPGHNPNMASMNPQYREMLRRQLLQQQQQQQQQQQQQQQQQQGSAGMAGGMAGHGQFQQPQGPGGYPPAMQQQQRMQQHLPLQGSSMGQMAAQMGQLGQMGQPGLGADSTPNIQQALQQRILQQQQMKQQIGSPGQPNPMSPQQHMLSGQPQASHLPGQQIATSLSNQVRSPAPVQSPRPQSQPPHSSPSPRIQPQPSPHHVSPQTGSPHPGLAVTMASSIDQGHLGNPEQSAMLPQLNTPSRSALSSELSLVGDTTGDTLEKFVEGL

For COc1ccc(C2(C(=O)N3C[C@H](F)C[C@@H]3C(=O)Nc3ccc4[nH]ncc4n3)CCCCC2)cc1 [Example 35, (4R)-4-Fluoro-1-{[1-(4-methoxyphenyl)cyclohexyl]carbonyl}-N-1H-pyrazolo[4,3-b]pyridin-5-yl-D-prolinamide], the IC50 (EP300) was 0.024 µM, the IC50 (CREBBP) was 0.01 µM and the “Tumor Growth Inhibition Rate” value (LK2 cells) was 44%. The “Tumor Growth Inhibition Rate” value (TE-8 cells) was 51% and the “Tumor Growth Inhibition Rate” value (KARPAS-422 cells) was 66%.
